“And” between values parts separate entries of the source, which are not always exact repeats. Equal entries are not always repeated. Ends that are not written are not given here.
Legend:
[1] = target: recombinant biotinylated L^d immobilized on an avidin-coated support, with QL9 peptide (mouse) (UniProt P01897)
[2] = target: L^d molecules complexed with QL9 peptide, on the cell surface (mouse) (UniProt P01887)
[3] = target: L^d molecules complexed with QL9 peptide, on the cell surface (mouse) (UniProt P01887); test: cell-based or functional assay
[4] = target: L^d molecules complexed with p2Ca peptide, on transfected Drosophila S2 cells (mouse) (UniProt P01887); test: cell-based or functional assay
[5] = target: T1, K^bsol (soluble H-2 K^b with murine β-2 microglobulin) (Mus musculus, UniProt P01901); format: binding
T1 construct: The cDNAs encoding K^b α1α2α3 domains (274 residues) and murine β-2 microglobulin (99 residues); made in house; host or cells: Drosophila S2/M3 cells, purified from culture supernatant
T1 sequence (P01901 22-295): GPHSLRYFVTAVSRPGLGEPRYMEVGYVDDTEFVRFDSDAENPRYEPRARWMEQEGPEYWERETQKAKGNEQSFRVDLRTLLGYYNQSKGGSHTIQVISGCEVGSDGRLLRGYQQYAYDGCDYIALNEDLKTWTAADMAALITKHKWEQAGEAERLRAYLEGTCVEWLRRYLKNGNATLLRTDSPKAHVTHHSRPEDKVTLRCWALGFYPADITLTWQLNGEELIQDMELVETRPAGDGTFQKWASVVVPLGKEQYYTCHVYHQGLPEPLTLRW
T1 sequence (P01887 21-119 partner): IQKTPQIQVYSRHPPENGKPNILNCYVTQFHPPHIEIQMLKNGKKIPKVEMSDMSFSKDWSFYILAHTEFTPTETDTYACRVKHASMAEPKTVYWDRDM

B3/CD8 T-cell hybridoma = test: Antigen presentation assay with B3/CD8 T-cell hybridoma (IL-2 via CTLL 3H thymidine); format: cell-based, murine; settings: peptide added to culture medium or protein osmotically loaded
Method: Osmotic loading of SC2 and 3T3 cells with ovalbumin protein was carried out as described by Moore, et al., Cell 54: 777-785 (1988). The assay procedure is as follows. In a 96-well dish, 1×10^5 Drosophila cells (with or without peptide/protein loaded) or 3T3 cells were cocultured with 1×10^5 B3/CD8 T-cell hybridoma cells in 200 μl of RPMI media supplemented with 10% fetal bovine serum. After 24 hours of incubation, 100 μl of the supernatant from these cultures was added to 100 μl of RPMI containing 5,000 CTLL cells. The cells were cocultured for 24 hours at 37° C. when 1 uCi of ^3H thymidine (Amersham) was added. After a further incubation of 15 hours at 37° C., the incorporation of radiolabel into the CTLL cells was determined by scintillation counting.
Assays conducted with murine MHC also verified that the insect cells are capable of loading peptide onto the Class I molecules. Cells expressing as few as 200-500 MHC molecules containing a particular antigen can be detected by a T-cell. […] Upon antigenic stimulation, B3/CD8 produces IL-2, measured by ^3H thymidine incorporation in IL-2-dependent T-cell line CTLL (Gillis, et al., J. Immunol. 120: 2027 91978)). Thus, by measuring the amount of IL-2 produced, one can assay for T-cell recognition. […]

HLA B27 = test: Peptide-induced thermostabilization of HLA B27 on Drosophila cells (W6/32 cytofluorimetry); format: cell-based, human
Method: Twenty-four hours prior to FACS analysis, CuSO4 is added to the stably transfected S2 cells (3-4×10^6 cells/ml) to a final concentration of 1 mM, thereby “switching on” expression from the transfected genes. Cells are plated out in 24-well cluster dishes (2 ml per well). Eight hours prior to FACS analysis, the CuSO4 medium is replaced with fresh medium (1 ml) with or without peptide at a concentration of 50 μg/ml. 37° C. temperature challenges are carried out by transferring the dishes onto a flat surface in a 37° C. room at various time intervals prior to harvesting the cells for analysis.
To analyze surface expression of Class I MHC on the S2 cells, aliquots of cells (5×10^5) are transferred into tubes on ice, collected by centrifugation (1,000×g for 4 minutes), resuspended in 3 ml of PBS/1% BSA, 0.02% sodium azide, collected by centrifugation and resuspended in PBS/BSA (0.5 ml) containing the appropriate primary antibody (ascites fluids Y3, 28:14:8S, 30.5.7, W6/32, diluted 1:200). Rabbit antisera are diluted 1:500 and B22.293 hybridoma supernatant is used directly. After a one hour incubation on ice, cells are washed twice in 3 ml of PBS/BSA and resuspended in 0.5 ml of PBS/BSA containing FITC labeled secondary antibody (Cappell, Durham, N.C.) and 1 ng/ml propidium iodide. […] Samples are then analyzed by FACS 440 (Becton Dickinson). […]

[6] = test system: CD8^+ 2C lymph node cells; test: Primary proliferative response of CD8+ 2C lymph node cells to peptides presented by transfected fly cells (3HTdR); format: cell-based, mouse; settings: peptide 10 μM
Method: (§1) Using a standard tissue culture system (Cai, Z. and Sprent, J. (1994) J. Exp. Med. 179: 2005-2015), doses of 5×10^4 purified CD8^+ 2C lymph node (LN) cells were cultured at 37° C. with doses of 3×10^5 transfected fly cells ±peptides (10 μM final concentration). Peptides were synthesized by R. W. Johnson Pharmaceutical Research Institute (Sykulev, et al. (1994) Immunity 1: 15-22. Proliferative responses were measured by adding ^3HTdR (1 μCi/well) 8 hours prior to harvest. IL-2 production was measured by removing supernatants from the cultures at 48 hours and adding 50 μl supernatant to an IL-2 responsive indicator cell line (CTLL); proliferation of the indicator line was measured by addition of ^3HTdR. The data shown in Table 2 are the means of triplicate cultures. The transfected Drosophila S2 cells die rapidly at 37° C. and fail to incorporate ^3HTdR at this temperature.

2C+ T-cells [7] = format: cell-based, mouse
[8] = test system: CD8^+ 2C lymph node cells; test: IL-2 production by CD8+ 2C lymph node cells (CTLL indicator line 3HTdR); format: cell-based, mouse; settings: peptide 10 μM
Method: as §1

CD8^+ 2C cells [9] = test: Dose-response of day 3 proliferation of CD8+ 2C cells to peptides on transfected Drosophila APC; format: cell-based, mouse
Method: Responses to p2Ca (above) and QL9 (below) were measured by culturing 5×10^4 purified CD8^+ 2C cells with 2×10^5 Drosophila cells in the presence or absence of the indicated concentrations of peptides for 3 days. [^3H] TdR was added during the last 8 hours of culture; rIL-2 was added at a final concentration of 20 units/ml. The data are the mean of triplicate cultures. When supplemented with exogenous IL-2, however, both peptides stimulated significant proliferative responses at high doses (10 μM). The proliferative responses elicited by QL9 were far stronger than for p2Ca (note the large difference between the scales of x-axes of the upper and the lower panel).
Dose-response relationships for proliferation on day 3 elicited by Drosophila cells transfected with L^d.B7.1CAM and presenting p2Ca peptide were compared to those elicited by Drosophila cells transfected with L^d.B7, L^d.ICAM or L^d.B7.1CAM presenting QL9 peptide. Drosophila APC (2×10^5 cells) were cultured with 5×10^4 CD8^+ 2C cells for three days in the presence or absence of peptides. [^3H] TdR was added during the last 8 hours of culture; no IL-2 was added to the cultures.

2C+ T-cells [10] = test: Enrichment of 2C+ T-cells from a 1/99 mixture with C57BL/6 CD8+ cells (1B2 staining, flow cytofluorometry); format: cell-based, mouse
Method: 2C+ T-cells were mixed with total CD8^+ cells from C57BL/6 mice at a 1/99 ratio and cells were cultured with immobilized L^d and anti-CD28 antibody in the presence of peptide QL9. IL-2 was added at day 2 of culture, and subsequently every other day. Cell activation and proliferation was noted, as evidenced by the formation of clumps, presence of enlarged cells that progressively spread in the well. At day 12 of culture, cells were harvested and percentage of cells expressing the 2C T-cell receptor was assessed by staining with the anticlonotypic antibody 1B2 and analysis by flow cytofluorometry: 43% of the cells cultured initially in the presence of peptide QL9 were 2C+, (FIG. 22) whereas 49% of the cells expressed 2C after stimulation with peptide p2Ca (FIG. 23), and 22% with peptide SL9 (FIG. 24). […] Enrichment was observed even with SL9, a peptide that makes a low affinity complex with the 2C T-cell receptor. This method thus can specifically activate and enrich a small subpopulation of antigen specific T-cells out of a heterogenous mixture of T-cells.

CD8^+ 2C cells [11] = test: CD69 and CD25 expression on CD8+ 2C cells stimulated with transfected Drosophila cells plus peptide; format: cell-based, mouse; settings: Drosophila cells expressing L^d alone; peptide 10 μM, 12 hours
Method: TCR stimulation elicited a complex pattern of intracellular events which lead to early up-regulation of CD69 and CD25 (IL-2 receptor or IL-2R) on the cell surface. These changes are apparent within a few hours of stimulation and are followed by cytokine synthesis and cell proliferation. Drosophila cells were transfected with genes for L^d, L^d and B7.1 (L^d.B7), L^d and ICAM-1 (L^d.ICAM) or L^d, B7.1 and ICAM-1 (L^d.B7.1CAM). […] Purified CD8^+ 2C cells were incubated with various Drosophila cells plus a peptide (either p2Ca or QL9, 10 μM) in bulk (2 ml) culture for 12 hours and then stained for CD69 or CD25. Either p2Ca or QL9 presented by Drosophila cells transfected with L^d.B7, L^d.ICAM or L^d.B7.1CAM were effective in stimulating the up-regulation of CD69 and CD25.

[12] = target: T2, soluble H-2 K^b (K^bsol): heterodimer of truncated K^b heavy chain and murine β-2 microglobulin, purified from Drosophila cells (murine), P01901
T2 chain 1: T1 sequence (P01901 22-295)
T2 chain 2: T1 sequence (P01887 21-119 partner)

Sequence of L^d molecules complexed with p2Ca peptide, on transfected Drosophila S2 cells (mouse) (P01897 25-362, one chain of several): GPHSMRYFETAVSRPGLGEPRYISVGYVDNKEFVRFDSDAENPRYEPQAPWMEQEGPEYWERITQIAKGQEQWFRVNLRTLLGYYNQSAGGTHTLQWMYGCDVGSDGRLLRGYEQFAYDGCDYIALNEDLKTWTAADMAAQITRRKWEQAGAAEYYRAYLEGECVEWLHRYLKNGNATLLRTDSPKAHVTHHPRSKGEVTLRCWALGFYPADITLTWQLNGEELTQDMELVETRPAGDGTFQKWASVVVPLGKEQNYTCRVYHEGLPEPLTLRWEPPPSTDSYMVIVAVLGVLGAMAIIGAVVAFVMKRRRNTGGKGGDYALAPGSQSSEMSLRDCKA
Sequence of L^d molecules complexed with QL9 peptide, on the cell surface (mouse) (P01897 25-362, one chain of several): as above
Sequence of recombinant biotinylated L^d immobilized on an avidin-coated support, with QL9 peptide (mouse) (P01897 25-309): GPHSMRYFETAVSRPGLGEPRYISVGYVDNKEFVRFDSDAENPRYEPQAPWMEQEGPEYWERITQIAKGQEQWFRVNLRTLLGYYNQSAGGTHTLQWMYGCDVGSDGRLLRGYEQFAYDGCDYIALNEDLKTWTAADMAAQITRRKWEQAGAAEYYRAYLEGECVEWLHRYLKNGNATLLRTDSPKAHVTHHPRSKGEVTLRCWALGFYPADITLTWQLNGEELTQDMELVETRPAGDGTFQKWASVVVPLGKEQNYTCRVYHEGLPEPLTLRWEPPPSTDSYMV

2C T-cell receptor on T-cells of 2C TCR transgenic mice
percent of the lymphocytes included in rosettes [1]: 30% and 40%
percent of the lymphocytes included in rosettes [2]: 30% and 40%
Proliferation (Day 3), ^3HTdR incorporation; fly cells expressing L^d [3]: 200 cpm
Proliferation (Day 3), ^3HTdR incorporation; fly cells expressing L^d + B7.1 [3]: 60900 cpm
Proliferation (Day 3), ^3HTdR incorporation; fly cells expressing L^d + ICAM-1 [3]: 73900 cpm
Proliferation (Day 3), ^3HTdR incorporation; fly cells expressing L^d [4]: 200 cpm
Proliferation (Day 3), ^3HTdR incorporation; fly cells expressing L^d + B7.1 [4]: 300 cpm
Proliferation (Day 3), ^3HTdR incorporation; fly cells expressing L^d + ICAM-1 [4]: 1500 cpm

EQLESIINFEKLTEWTSSNVMEER [OVA-24]
affinity lower than that of OVA-8 [5]: more than 10,000 fold
T-cell recognition (IL-2 response) of K^b Drosophila cells (B3/CD8 T-cell hybridoma): responded well

FRIGCRHSR [HIV Vpr peptide]
thermostabilization of HLA B27 surface expression (HLA B27): stabilizes B27

ILKEPVHGV [HIV POL peptide]
thermostabilization of HLA B27 surface expression (HLA B27): not B27

LSPFPFDL [p2Ca]
Proliferation (Day 3) ^3HTdR incorporation, fly cells expressing L^d ([6]; APC L^d): 0.2 cpm × 10^3
Proliferation (Day 3) ^3HTdR incorporation, fly cells expressing L^d + B7.1 ([6]; APC L^d + B7.1): 0.3 cpm × 10^3
Proliferation (Day 3) ^3HTdR incorporation, fly cells expressing L^d + B7.1 + ICAM-1 ([6]; APC L^d + B7.1 + ICAM-1): 142.0 cpm × 10^3
Proliferation (Day 3) ^3HTdR incorporation, fly cells expressing L^d + ICAM-1 ([6]; APC L^d + ICAM-1): 1.5 cpm × 10^3
Proliferation (Day 3) ^3HTdR incorporation, L^d + B7.1 combined with L^d + ICAM-1 ([6]; mixture of two APC lines): 1.5 cpm × 10^3
activation (mitogenesis) of 2C+ T-cells (2C+ T-cells [7]): able to activate
IL-2 Production (Day 2) ^3HTdR incorporation, fly cells expressing L^d ([8]; APC L^d): 0.2 cpm × 10^3
IL-2 Production (Day 2) ^3HTdR incorporation, fly cells expressing L^d + B7.1 ([8]; APC L^d + B7.1): 0.2 cpm × 10^3
IL-2 Production (Day 2) ^3HTdR incorporation, fly cells expressing L^d + B7.1 + ICAM-1 ([8]; APC L^d + B7.1 + ICAM-1): 64.6 cpm × 10^3
IL-2 Production (Day 2) ^3HTdR incorporation, fly cells expressing L^d + ICAM-1 ([8]; APC L^d + ICAM-1): 0.1 cpm × 10^3
IL-2 Production (Day 2) ^3HTdR incorporation, L^d + B7.1 combined with L^d + ICAM-1 ([8]; mixture of two APC lines): 0.3 cpm × 10^3
proliferation of 2C CD8+ cells (CD8^+ 2C cells [9]; Drosophila cells with L^d alone, no exogenous lymphokines): failed
peptide concentration required for optimal day 3 proliferative response (CD8^+ 2C cells [9]; L^d.B7.1CAM APC, no IL-2): 10 µM
enrichment in specific T-cells after 12 days (2C+ T-cells [10]; start 1/99): 49 times
cells expressing the 2C T-cell receptor (2C+) at day 12 (2C+ T-cells [10]; start 1/99 2C+/total CD8+, immobilized L^d and anti-CD28, IL-2 from day 2): 49%
induction of CD69 and CD25 expression (CD8^+ 2C cells [11]): barely detectable

ovalbumin protein: ovalbumin (Sigma Chem. Co.) osmotically loaded into the cells (EQLESIINFEKLTEWTSSNVMEER)
T-cell recognition (IL-2 response) of K^b Drosophila cells (B3/CD8 T-cell hybridoma): no recognition

RGYVYQGL (modifications not checked) [[^125I]VSV-8 (radioiodinated VSV-8 peptide)]
percent of the total labeled peptide able to bind [12]: 65%
